According to patent US11977086B2, “Biomarker detection from breath samples” (Hound Labs, Inc., priority 2019, dated 2024):

What was measured:
[1] = compared with THC; cited from earlier work
[2] = pH>8; cited from earlier work
[3] = THC in breath after smoking, samples collected with a Hound Labs device and analyzed by mass spectrometry; type: in vivo, human

SMILES	resistance to oxidation [1]	solubility versus pH [2]	measured amount of THC in breath sample indicative of recent usage ([3]; breath sample of 0.5 liters, usage within the three hours prior to collection)	baseline breath THC, maximum ([3]; chronic or frequent smokers who have not smoked for several hours) [pg/5 L breath]	maximum baseline breath THC per liter ([3]; chronic users, 12 pg/5 L converted to per liter) [pg/L]	time THC is detected in breath after smoking ([3]; on average, 430 tests, smoking indoors or outdoors, mass spectrometry) [h]
CCCCCc1cc2c(c(O)c1C(=O)O)[C@@H]1C=C(C)CC[C@H]1C(C)(C)O2 [THCA]	higher resistance to oxidation					
CCCCCc1cc(O)c2c(c1)OC(C)(C)[C@@H]1CCC(C)=C[C@@H]21 [THC, tetrahydrocannabinol]		higher solubility	1-10 picograms (pg)	≤ 12	≤ 2.4	2 to 3
